# From ChEMBL document CHEMBL1201861, “Genomics of Drug Sensitity in Cancer screening data, Wellcome Trust Sanger Institute”
# How the values were obtained:
# Assay in all cases: cells
# D-542MG = format: functional, cell-based, Homo sapiens; conditions: Homo sapiens, D-542MG
# Description: SANGER: Inhibition of human D-542MG cell growth in a cell viability assay.
# MEG-01 = format: functional, cell-based; conditions: Homo sapiens;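 also: growth inhibition of MEG-01 cells, read out by a cell viability assay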
# Description: SANGER: Inhibition of human MEG-01 cell growth in a cell viability assay.
# ES6 = format: functional, cell-based, Homo sapiens; conditions: Homo sapiens, ES6;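 also: growth inhibition of human ES6 cells, read out with a cell viability assay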
# Description: SANGER: Inhibition of human ES6 cell growth in a cell viability assay.
# MZ1-PC = format: functional, cell-based, Homo sapiens; conditions: Homo sapiens, MZ1-PC;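 also: cell viability assay measuring growth inhibition of human MZ1-PC cells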
# Description: SANGER: Inhibition of human MZ1-PC cell growth in a cell viability assay.
# BB65-RCC = format: functional, cell-based, Homo sapiens; conditions: Homo sapiens, BB65-RCC;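 also: growth inhibition of the cell line, measured with a cell viability assay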
# Description: SANGER: Inhibition of human BB65-RCC cell growth in a cell viability assay.
# UACC-257 = format: functional, cell-based, Homo sapiens; conditions: Homo sapiens, UACC-257
# Description: SANGER: Inhibition of human UACC-257 cell growth in a cell viability assay.
# CCRF-CEM = format: functional, cell-based; conditions: Homo sapiens;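 also: inhibition of CCRF-CEM cell growth, measured by a cell viability assay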
# Description: SANGER: Inhibition of human CCRF-CEM cell growth in a cell viability assay.
# OMC-1 = format: functional, cell-based, Homo sapiens; conditions: Homo sapiens, OMC-1;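 also: growth inhibition of the OMC-1 cell line, measured by a cell viability assay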
# Description: SANGER: Inhibition of human OMC-1 cell growth in a cell viability assay.
# SF-268 = format: functional, cell-based, Homo sapiens; conditions: Homo sapiens, SF-268;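 also: growth inhibition of SF-268 cells determined with a cell viability assay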
# SK-LMS-1 = format: functional, cell-based, Homo sapiens; conditions: Homo sapiens, SK-LMS-1;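 also: growth inhibition of human SK-LMS-1 cells, read out with a cell viability assay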
# Description: SANGER: Inhibition of human SK-LMS-1 cell growth in a cell viability assay.
# EC-GI-10 = format: functional, cell-based, Homo sapiens; conditions: Homo sapiens, EC-GI-10
# Description: SANGER: Inhibition of human EC-GI-10 cell growth in a cell viability assay.
# DJM-1 = format: functional, cell-based, Homo sapiens; conditions: Homo sapiens, DJM-1;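 also: growth inhibition of human DJM-1 cells, read out by a cell viability assay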
# Description: SANGER: Inhibition of human DJM-1 cell growth in a cell viability assay.
# MSTO-211H = format: functional, cell-based, Homo sapiens; conditions: Homo sapiens, MSTO-211H
# Description: SANGER: Inhibition of human MSTO-211H cell growth in a cell viability assay.
# RCC10RGB = format: functional, cell-based, Homo sapiens; conditions: Homo sapiens, RCC10RGB;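 also: growth inhibition of human RCC10RGB cells, read out by a cell viability assay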
# Description: SANGER: Inhibition of human RCC10RGB cell growth in a cell viability assay.
# KP-N-YS = format: functional, cell-based; conditions: Homo sapiens;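 also: cell viability assay measuring inhibition of cell line growth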
# Description: SANGER: Inhibition of human KP-N-YS cell growth in a cell viability assay.
# LAMA-84 = format: functional, cell-based; conditions: Homo sapiens;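 also: growth inhibition of LAMA-84 cells, read out with a cell viability assay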
# Description: SANGER: Inhibition of human LAMA-84 cell growth in a cell viability assay.
# HEL = format: functional, cell-based, Homo sapiens; conditions: Homo sapiens, HEL;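 also: growth inhibition of HEL cells, read out with a cell viability assay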
# Description: SANGER: Inhibition of human HEL cell growth in a cell viability assay.
# LS-411N = format: functional, cell-based, Homo sapiens; conditions: Homo sapiens, LS-411N
# NCI-H1299 = format: functional, cell-based, Homo sapiens; conditions: Homo sapiens, NCI-H1299;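 also: growth inhibition of human NCI-H1299 cells, read out by a cell viability assay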
# Description: SANGER: Inhibition of human NCI-H1299 cell growth in a cell viability assay.
# NCI-H1355 = format: functional, cell-based, Homo sapiens; conditions: Homo sapiens, NCI-H1355;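 also: growth inhibition of human NCI-H1355 cells, read out by a cell viability assay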
# Description: SANGER: Inhibition of human NCI-H1355 cell growth in a cell viability assay.
Structure (SMILES),IC50 (D-542MG),IC50 (MEG-01),IC50 (ES6),IC50 (MZ1-PC),IC50 (BB65-RCC),IC50 (UACC-257),IC50 (CCRF-CEM),IC50 (OMC-1),IC50 (SF-268),IC50 (SK-LMS-1),IC50 (EC-GI-10),IC50 (DJM-1),IC50 (MSTO-211H),IC50 (RCC10RGB),IC50 (KP-N-YS),IC50 (LAMA-84),IC50 (HEL),IC50 (LS-411N),IC50 (NCI-H1299),IC50 (NCI-H1355)
C=C1C(=O)O[C@@H]2C3O[C@]3(C)CC/C=C(\C)CC[C@@H]12 (stereo partly specified),> 5000 nM,> 5000 nM,> 5000 nM,> 5000 nM,> 5000 nM,> 5000 nM,> 5000 nM,> 5000 nM,> 5000 nM,> 5000 nM,> 5000 nM,> 5000 nM,> 5000 nM,> 5000 nM,> 5000 nM,> 5000 nM,3180 nM,> 5000 nM,> 5000 nM,> 5000 nM
CC1=C2C[C@H]3[C@@H](CC=C4C[C@@H](O)CC[C@@]43C)[C@@H]2CC[C@]12O[C@@H]1C[C@H](C)CN[C@H]1[C@H]2C [CYCLOPAMINE],> 16000 nM,> 16000 nM,> 16000 nM,> 16000 nM,> 16000 nM,> 16000 nM,> 16000 nM,> 16000 nM,> 16000 nM,> 16000 nM,> 16000 nM,> 16000 nM,> 16000 nM,> 16000 nM,> 16000 nM,> 16000 nM,> 16000 nM,> 16000 nM,,> 16000 nM
CS(=O)(=O)CCNCc1ccc(-c2ccc3ncnc(Nc4ccc(OCc5cccc(F)c5)c(Cl)c4)c3c2)o1 [LAPATINIB],> 2000 nM,> 2000 nM,> 2000 nM,> 2000 nM,> 2000 nM,> 2000 nM,> 2000 nM,> 2000 nM,> 2000 nM,> 2000 nM,> 2000 nM,> 2000 nM,> 2000 nM,> 2000 nM,> 2000 nM,> 2000 nM,> 2000 nM,> 2000 nM,,> 2000 nM
CCc1nc(N)nc(N)c1-c1ccc(Cl)cc1 [PYRIMETHAMINE],> 20000 nM,11800 nM,17200 nM,> 20000 nM,> 20000 nM,3840 nM,9390 nM,> 20000 nM,3600 nM,> 20000 nM,> 20000 nM,> 20000 nM,7640 nM,> 20000 nM,> 20000 nM,2660 nM,2670 nM,837 nM,> 20000 nM,> 20000 nM
O=C(/C=C/c1ccccc1)NC(NC(=S)Nc1cccc2cccnc12)C(Cl)(Cl)Cl (stereo unspecified) [SALUBRINAL],13400 nM,> 16000 nM,> 16000 nM,> 16000 nM,> 16000 nM,> 16000 nM,> 16000 nM,> 16000 nM,> 16000 nM,> 16000 nM,> 16000 nM,> 16000 nM,> 16000 nM,> 16000 nM,> 16000 nM,15700 nM,10600 nM,> 16000 nM,,> 16000 nM
CN1CCN(CCOc2cc(OC3CCOCC3)c3c(Nc4c(Cl)ccc5c4OCO5)ncnc3c2)CC1 [SARACATINIB],,237 nM,> 2000 nM,> 2000 nM,> 2000 nM,> 2000 nM,> 2000 nM,> 2000 nM,> 2000 nM,> 2000 nM,> 2000 nM,> 2000 nM,> 2000 nM,> 2000 nM,> 2000 nM,160 nM,> 2000 nM,> 2000 nM,> 2000 nM,> 2000 nM
CO[C@H]1C[C@@H]2CC[C@@H](C)[C@@](O)(O2)C(=O)C(=O)N2CCCC[C@H]2C(=O)O[C@H]([C@H](C)C[C@@H]2CC[C@@H](O)[C@H](OC)C2)CC(=O)[C@H](C)/C=C(\C)[C@@H](O)[C@@H](OC)C(=O)[C@H](C)C[C@H](C)/C=C/C=C/C=C/1C [SIROLIMUS],,> 100 nM,3.43 nM,> 100 nM,> 100 nM,> 100 nM,4.94 nM,> 100 nM,> 100 nM,2.49 nM,> 100 nM,> 100 nM,> 100 nM,> 100 nM,> 100 nM,> 100 nM,49.8 nM,77.6 nM,> 100 nM,1.01 nM
CNC(=O)c1cc(Oc2ccc(NC(=O)Nc3ccc(Cl)c(C(F)(F)F)c3)cc2)ccn1 [SORAFENIB],> 4000 nM,1810 nM,> 4000 nM,3480 nM,471 nM,> 4000 nM,> 4000 nM,> 4000 nM,> 4000 nM,> 4000 nM,> 4000 nM,> 4000 nM,> 4000 nM,> 4000 nM,> 4000 nM,1380 nM,> 4000 nM,> 4000 nM,> 4000 nM,> 4000 nM
CCC(=O)N1CCN(c2ccc(-n3c(=O)ccc4cnc5ccc(-c6cnc7ccccc7c6)cc5c43)cc2C(F)(F)F)CC1 [TORIN1],,186 nM,10.8 nM,66 nM,36.9 nM,98.3 nM,33.7 nM,78 nM,98.2 nM,14.1 nM,> 1200 nM,> 1200 nM,> 1200 nM,> 1200 nM,> 1200 nM,21.7 nM,16.4 nM,14.4 nM,,16.5 nM
Cc1cc(Nc2cc(N3CCN(C)CC3)nc(Sc3ccc(NC(=O)C4CC4)cc3)n2)n[nH]1 [TOZASERTIB],,278 nM,> 2000 nM,> 2000 nM,1180 nM,> 2000 nM,653 nM,> 2000 nM,> 2000 nM,1220 nM,> 2000 nM,> 2000 nM,> 2000 nM,> 2000 nM,544 nM,352 nM,> 2000 nM,578 nM,,> 2000 nM
